# Target: T1, human HSD17β13 (stable HEK293T cell line overexpressing human HSD17β13) (Homo sapiens, UniProt Q7Z5P4)
# T1 construct: expressed in transfected cells
# T1 sequence (Q7Z5P4 20-300): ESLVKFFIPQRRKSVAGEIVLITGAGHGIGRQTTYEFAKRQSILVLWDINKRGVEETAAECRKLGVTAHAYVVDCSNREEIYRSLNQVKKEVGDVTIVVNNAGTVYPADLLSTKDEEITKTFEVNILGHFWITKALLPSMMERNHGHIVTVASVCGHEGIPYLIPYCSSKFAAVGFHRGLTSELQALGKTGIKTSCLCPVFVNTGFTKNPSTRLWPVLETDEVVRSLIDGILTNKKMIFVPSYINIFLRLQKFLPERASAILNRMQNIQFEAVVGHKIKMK
# Assay: HSD17β13 inhibitor cell-based screening assay (conversion of estradiol-d2 to estrone-d2 by RF-MS)
# Settings: conversion of estradiol-d2 to estrone-d2 after 24 hours
# Outline: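 Cellular IC50 is based on 24-h conversion of estradiol-d2 (5 μM final) to estrone-d2, measured by RF-MS in acetonitrile-precipitated supernatants. Assay uses human HSD17β13-overexpressing HEK293T cells (7.5E3/well, 1% charcoal/dextran FBS MEM), with compounds dosed as a 9-point 1:3 series to 10 μM final. ATPlite luminescence on overexpressing and parent lines measured viability.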
row,Compound,IC50 [µM]
1,"CS(=O)(=O)c1ccc(-c2nc3sc4c(O)c(Cl)ccc4c3c(=O)n2Cc2cnc(C(F)(F)F)nc2)c(C2CC2)c1 [Example 64, 7-chloro-2-(2-cyclopropyl-4-(methylsulfonyl)phenyl)-8-hydroxy-3-((2-(trifluoromethyl)pyrimidin-5-yl)methyl)benzo[4,5]thieno[2,3-d]pyrimidin-4(3H)-one]",< 0.1
2,"COc1ccc(-c2nc3sc4c(O)c(Cl)ccc4c3c(=O)n2Cc2cnco2)c(C2CC2)c1 [Example 26, 7-chloro-2-(2-cyclopropyl-4-methoxyphenyl)-8-hydroxy-3-(oxazol-5-ylmethyl)benzo[4,5]thieno[2,3-d]pyrimidin-4(3H)-one]",< 0.1

# Reference: patent US20250154163A1, “Pyrimidinone-Containing 17-Beta-Hydroxysteroid Dehydrogenase Type 13 Inhibitors” (ENANTA PHARMACEUTICALS, INC., priority 2023, published 2025)
